Records with an inconclusive call do not appear. Activity calls are given as the source filed them. No rule for the calls is given here.
Target: CAAX prenyl protease 2 (Saccharomyces cerevisiae (strain ATCC 204508 / S288c)) (UniProt Q03530)
Test: yeast Rce1 CAAX endoprotease inhibition – biochemical, plate reader, cherry-pick, dose response (AID 488788)
Conditions: Rce1p enzyme activity, at 10 µM (top of the series)

Sequence of CAAX prenyl protease 2 (Saccharomyces cerevisiae (strain ATCC 204508 / S288c)) (Q03530 whole entry, looked up): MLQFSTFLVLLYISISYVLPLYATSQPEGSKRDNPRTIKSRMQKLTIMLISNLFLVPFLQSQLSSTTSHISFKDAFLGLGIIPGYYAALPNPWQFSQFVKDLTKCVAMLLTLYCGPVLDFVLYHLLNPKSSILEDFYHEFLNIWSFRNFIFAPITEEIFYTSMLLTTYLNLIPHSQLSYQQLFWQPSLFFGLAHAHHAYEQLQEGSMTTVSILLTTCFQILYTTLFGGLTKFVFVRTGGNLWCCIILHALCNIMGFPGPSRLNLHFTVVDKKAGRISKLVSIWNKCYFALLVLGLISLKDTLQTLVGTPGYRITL

Compound	activity change, negative = inhibition
O=C1CCCC(O)=C1N=Nc1ccc2ncsc2c1	inactive
O=S(=O)(CC(CN1CCOCC1)N1CCOCC1)c1ccccc1 (stereo not drawn)	inactive
CC(=O)N1c2ccc([N+](=O)[O-])cc2NC(=O)CC1C (stereo not drawn)	inactive
Cc1ccc(S(=O)(=O)Oc2ccc(C3C4=C(CCCC4=O)N(CCC(=O)O)C4=C3C(=O)CCC4)cc2Cl)cc1	inactive
C/C(CC(=O)NCc1ccco1)=N\NC(=O)c1ccc([N+](=O)[O-])cc1Cl	inactive
CCOC(=O)c1sc2nc(C3CC3)cc(-c3ccc(F)cc3)c2c1N	inactive
CCCCNC(=O)C(CC)Sc1nc2sc(C(=O)OC)c(C)c2c(=O)n1N (stereo not drawn)	inactive
CCn1cc(C(=O)NCCO)c(=O)c2cc(F)c(N3CCN(C)CC3)cc21	inactive
CN(C)CC(C)(C)CNC(=S)NCc1ccc2c(c1)OCO2	inactive
Cc1ccc(NS(=O)(=O)c2ccc(NC(=O)N3CCCCC3)cc2)cc1	inactive
CCNC(=S)NNC(=O)CCn1cc(C)cn1	inactive
O=C(N/N=C/C1CC=CCC1)c1ccc(O)cc1O (stereo not drawn)	inactive
CC(=O)c1c(C)[nH]c(C(=O)OCc2ccc(Br)cc2)c1C	inactive
O=C(CCCn1c(=O)[nH]c2ccc(Br)cc2c1=O)NCc1ccc(Cl)cc1	inactive
CCn1c(C)nc2c(=O)oc3ccccc3c21	inactive
CC(C)CNC(=O)COc1cccc(C(=O)NCc2ccccc2)c1	inactive
COC(C/C=C/[C@H](O)[C@@H](C)OCc1ccccc1)OC	inactive
N#CC(/C(=N/S(=O)(=O)c1cccs1)c1ccccc1)c1nc2ccccc2[nH]1 (stereo not drawn)	inactive
NC(=O)[C@@H]1CC2(CC(c3cccc(NC(=O)CC(c4ccccc4)c4ccccc4)c3)=NO2)CN1C(=O)c1ccc(Cl)cc1 (stereo partly drawn)	inactive
Cc1nc(N2CCOCC2)c2cc(-c3ccccc3)sc2n1	inactive
c1cnn(Cc2cnc(N3CCOCC3)s2)c1	inactive
Cc1cc(C)cc(N2CC(O)=C(c3nc4ccccc4c(=O)[nH]3)C2=N)c1	inactive
COc1ccc(-c2cn3ccccc3n2)cc1[N+](=O)[O-]	inactive
CCOC(=O)c1nnn2c1nc(N1CCOCC1)c1ccccc12	inactive

Compound	activity change, negative = inhibition
COc1ccccc1NC(=O)/C(=C\c1cccnc1)NC(=O)c1ccc(C)cc1	inactive
Cn1c(=O)c(C(=O)NCCO)c(O)c2ccccc21	inactive
C/C(=N\NC(=O)c1ccc(Br)cc1)c1cccc(NC(=O)c2cccnc2)c1	inactive
Nc1ccccc1Oc1ccc2ccccc2c1	inactive
CCOC(=O)c1c(-c2ccccc2)oc2ccc(OCC(O)CNCCN(C)C)cc12 (stereo not drawn)	inactive
COCCN1C(=O)/C(=C/c2ccc(Oc3ccc([N+](=O)[O-])cn3)c(OC)c2)SC1=Nc1ccccc1	inactive
CCN(CC)CCNC(=O)CSc1c2c(nc3cc(Cl)ccc13)CCCC2	inactive
COc1nc(-c2ccccc2)ccc1-c1noc(-c2ccccc2F)n1	inactive
C#CCNC(=O)C1=C[C@@H](C2CCCCC2)C[C@@H](OCc2ccc(CO)cc2)O1	inactive
COC(=O)C(Cc1ccccc1)OS(N)(=O)=O (stereo not drawn)	inactive
c1ccc(C[n+]2cccc3c4ccccc4ccc32)cc1	inactive
Cc1c(CCC(=O)O)c(=O)oc2cc(OCc3cccc(F)c3)ccc12	inactive
COc1ccc(S(=O)(=O)N(CC(=O)N2CCCC2)Cc2ccccc2)cc1	inactive
COc1ccc(Cc2nc3ccc(C(=O)N4CCCC4)cc3o2)cc1	inactive
Nc1nc2n[nH]nc2c(=O)[nH]1	inactive
Cc1ccccc1OC(C)C(=O)N1CCC(Cc2ccccc2)CC1 (stereo not drawn)	inactive
O=C1NC(c2ccc(Br)cc2)Nc2ccccc21 (stereo not drawn)	inactive
CC(=O)NN1C(=O)c2ccccc2NC1c1ccccc1 (stereo not drawn)	inactive
CN(C)c1ccc(/C=N/NC(=O)C(O)c2ccc(Br)cc2)cc1 (stereo not drawn)	inactive
CCc1ccc(NC(=O)c2cnc(N3CCN(c4ccccn4)CC3)c3ccccc23)cc1	inactive
CCC(=O)Nc1cccc(NC(=S)NC(=O)c2cccs2)c1	inactive
COc1ccc(/C=C/c2nc3ccccc3n2C)cc1	inactive
CC(C)N1CCN(S(=O)(=O)c2ccc3ccccc3c2)CC1	inactive
CSc1ccc(/C=C/C(=O)OCC(=O)NC(C)C)cc1	inactive

Compound	activity change, negative = inhibition
C=CCn1c(O)c(C(CC)=Nc2ccc(N(CC)CC)cc2)c(=O)[nH]c1=O	inactive
COc1cccc(NC(=O)Nc2cccn(Cc3ccc(C)cc3)c2=O)c1	inactive
CCOC(=O)c1c(-c2ccc(OC)cc2)oc2ccc(OC(=O)N(C)C)cc12	inactive
Cc1nn(CCC(=O)O)c2nc(-c3cccnc3)cc(C(F)(F)F)c12	inactive
Cc1cc(NS(=O)(=O)c2ccccc2)c([N+](=O)[O-])cc1C	inactive
O=C(COc1ncnc2cc([N+](=O)[O-])ccc12)NC(=O)NC1CCCCC1	inactive
CCCCn1c(-c2sccc2C)n[nH]c1=S	inactive
Cc1cc(C(=O)N/N=C/c2c3ccccc3cc3ccccc23)n[nH]1	inactive
C=CCNc1oc(/C=C/c2ccccc2)nc1C#N	inactive
CCCCNC(=O)c1cc2c(=O)n3cccc(C)c3nc2n(Cc2ccccc2)c1=N	inactive
O=C(O)c1ccc(Nc2nc3ccc(Cl)cc3[nH]2)cc1	inactive
CCOCc1cc(C)[nH]c(=O)c1C#N	inactive
Cc1nn(-c2ccccc2)c2nc(N)c(C(N)=O)cc12	inactive
O=[N+]([O-])c1cc(S(=O)(=O)N2CCCC2)ccc1NN=C1CCCCC1	inactive
CC(=O)OCC(=O)[C@@]12OC3(CCCC3)O[C@@H]1C[C@H]1[C@@H]3CCC4=CC(=O)C=C[C@]4(C)[C@@]3(F)[C@@H](O)C[C@@]12C	inactive
CCOc1ccc(C2C(C#N)=C(N)Oc3c2c(=O)oc2ccccc32)cc1 (stereo not drawn)	inactive
CCN1CCN(c2ccc(NC(=O)c3cccc(OCc4ccccc4)c3)cc2)CC1	inactive
CC1=C(C(=O)N2CCOCC2)C(c2ccccc2F)C2=C(CC(C)(C)CC2=O)N1 (stereo not drawn)	inactive
COc1cc(-c2nc3ccccn3c2/N=C/c2ccccc2)ccc1O	inactive
CN1CC(C(=O)c2ccc(Cl)cc2)C(c2ccc(Cl)cc2Cl)C1 (stereo not drawn)	inactive
N=C(N)c1ccc(/C=C/c2ccc(C(=N)N)cc2O)cc1	inactive
Cc1cc(C)n(-c2nc3ccccc3c(=O)n2OCC(=O)N(C)C)n1	inactive
OC1CCN(C(c2ccc3ncccc3c2)c2nnnn2C2CCCCC2)CC1 (stereo not drawn)	inactive
CN1C(=O)c2ccccc2N(C)C1c1ccccc1Cl (stereo not drawn)	inactive

Compound	activity change, negative = inhibition
O=C1C(Cc2c[nH]c3ccccc23)NC(=S)N1Cc1ccccc1 (stereo not drawn)	inactive
COC(=O)c1sccc1NC(=O)CSc1nnnn1-c1ccccc1C	inactive
COc1cc(-c2nc3ccccn3c2/N=C/c2cc(OC)c(OC)c(OC)c2)ccc1O	inactive
CCOc1ccc(OCC)c(NC(=O)c2nnn(CC(=O)Nc3cc(C)cc(C)c3)c2N)c1	inactive
CCCOc1ccccc1C(=O)NCCCC(=O)O	inactive
COC(C[C@@H](O)C[C@H](O)[C@H](C)OCc1ccccc1)OC	inactive
Cc1ccc(-c2cc3cccc[n+]3cc2-c2ccc(C)cc2)cc1	inactive
CC1=NN(c2ccccc2)C(=O)/C1=C\c1ccc(Br)s1	inactive
O=C(COC(=O)c1ccc(S(=O)(=O)N2CCCC2)cc1)NCc1ccccc1	inactive
Cc1nc(N2CCOCC2)c2c(C)c(C(=O)Nc3ccccc3C(F)(F)F)sc2n1	inactive
CC(=O)N[C@@H](C)c1nc2ccccc2n1CCCN1CCN(c2nc(-c3ccc(C)cc3)cs2)CC1	inactive
COc1ccc(/C=N/NC(=O)c2ccc(Cl)cc2)cc1COC(C)=O	inactive
COc1ccc(-c2cc3ccccc3n2CC(O)CNCCO)cc1 (stereo not drawn)	inactive
COc1ccc(-n2c(N)c(C(=O)NCc3ccco3)c3nc4ccccc4nc32)c(OC)c1	inactive
COc1ccc(C2C3=C(CC(C)(C)CC3=O)Nc3n[nH]c(C)c32)cc1 (stereo not drawn)	inactive
COC(C/C=C/[C@@H](O)[C@H](C)OCc1ccccc1)OC	inactive
O=C1CN(S(=O)(=O)c2ccc([N+](=O)[O-])cc2)CC(=O)N1	inactive
COC(=O)Cn1c(CCC(=O)O)ccc1-c1ccccc1	inactive
c1ccc(CCCN2CCN(CCOC(c3ccccc3)c3ccccc3)CC2)cc1	inactive
CCOc1cc(CNC2CCCC2)ccc1OCc1ccccc1Cl	inactive
CC(C)c1ccc(NC(=O)COc2nncc3ccccc23)cc1	inactive
